From patent US20240245694A1, “Tricyclic Compounds and their Uses” (Novartis AG, priority 2022, published 2024) come the findings set out here.

Experiment [1] concerns the target WRN helicase (core helicase motif aa N517-P1238) (Homo sapiens (Human), UniProt Q14191). Kind of experiment: WRN ATPase assay (ADP-Glo), DNA dependent ATP hydrolysis. Type of experiment: biochemical. As to conditions: 3 hours pre-incubation, 300 micromolar ATP, FLAP26 ssDNA; geometric means of at least 2 determinations. In short, it runs like this:
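Uses the WRN core helicase (aa N517-P1238) with single-strand 45-mer FLAP26 DNA in Tris pH 7.5, MgCl2, NaCl, BSA and pluronic buffer. Compound was pre-incubated 3 h with enzyme and ATP; reaction then run with 10 nM WRN, 0.2 nM FLAP26 and 300 µM ATP for 30 min at room temperature. ADP quantified by ADP-Glo luminescence; IC50 from duplicate 4-parameter fits, geometric mean of ≥2 runs.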
A general note: In ADP-Glo the light output rises with the ADP produced.

For experiment [2], the system named is SW48 colorectal xenografts. Nature of the experiment: Efficacy against subcutaneous SW48 colorectal xenografts. Type of experiment: in vivo, Crl:NU(NCr)-Foxn1nu nude mice. As to conditions: for % T/C / maximal regression: amorphous sodium salt; for anti-tumor effect / relapse while on treatment: p.o. qd; for anti-tumor effect: all dose levels of the study; for relapse while on treatment: time of relapse dose dependent. The procedure:
Experiments were performed in female Crl:NU(NCr)-Foxn1^nu-homozygous nude mice (Charles River). Animals were housed under Optimized Hygienic Conditions in Allentown XJ cages (IVC, max. 6 mice per cage) with food and water at libitum and a 12 h:12 h light:dark cycle. Animals were allowed to acclimatize for at least 1 week before being enrolled in the experimental design. The study described here was performed according to license 1975 approved by the Basel Cantonal Veterinary Office.
Tumors were established by subcutaneous inoculation of human colorectal cancer SW48 cells (5×10^6 cells/animal in 100 μL in HBSS). SW48 human colorectal cancer cells were obtained from ATCC. The cells were cultured in RPMI-1640 medium (BioConcept Ltd., #1-41F01-1) supplemented with 10% FCS (Bio Concept #2-01F30-1), 2 mM L-glutamine (BioConcept Ltd., #5-10K50-H), 1 mM sodium pyruvate (Bio Concept #5-60F00-H) and 10 mM HEPES (Bio Concept #5-31F00-H) at 37° C. in an atmosphere of 5% CO2 in air. To establish SW48 xenografts cells were harvested and re-suspended in HBSS (Sigma, #H6648) before injecting subcutaneously 100 μL containing 5 million cells in the right flank of animals which were anaesthetized with isoflurane. Tumor size, in mm^3, was calculated following the formula: (L×W2×π/6); where W=width and L=length of the tumor. As a measure of efficacy the % T/C value is calculated at the end of the experiment according to:
Tumor regression was calculated according to: […]
Where Δtumor volumes represent the mean tumor volume on the evaluation day minus the mean tumor volume at the start of the experiment.
Amorphous sodium salt of test compound (corrected by salt factor) was dissolved in an aqueous 20% w/v solution of 2-hydroxypropyl-beta-cyclodextrin (HPBCD). A range of concentrations was prepared by serial dilution starting from the solution at highest concentration for the highest dose in the study.
Treatment was initiated about two weeks post tumor cell inoculation, when the xenografts had reached a mean volume of approximately 200 mm^3. The tumor bearing animals were randomized based on tumor volumes into experimental groups with 6 animals per group and treatment was initiated. Compounds were dosed orally (p.o.) once per day (qd) at 1, 3, 5 or 10 mg/kg (Example 18A) and at 0.1, 0.3, 1, 3 mg/kg (Example 21A). In addition, a control group treated once per day with vehicle (20% 2-hydroxypropyl-β-cyclodextrin) was included in each study. Tumor volumes and body weights were measured two times per week until the study termination.

WRN helicase (core helicase motif aa N517-P1238), sequence (Q14191 517-1238): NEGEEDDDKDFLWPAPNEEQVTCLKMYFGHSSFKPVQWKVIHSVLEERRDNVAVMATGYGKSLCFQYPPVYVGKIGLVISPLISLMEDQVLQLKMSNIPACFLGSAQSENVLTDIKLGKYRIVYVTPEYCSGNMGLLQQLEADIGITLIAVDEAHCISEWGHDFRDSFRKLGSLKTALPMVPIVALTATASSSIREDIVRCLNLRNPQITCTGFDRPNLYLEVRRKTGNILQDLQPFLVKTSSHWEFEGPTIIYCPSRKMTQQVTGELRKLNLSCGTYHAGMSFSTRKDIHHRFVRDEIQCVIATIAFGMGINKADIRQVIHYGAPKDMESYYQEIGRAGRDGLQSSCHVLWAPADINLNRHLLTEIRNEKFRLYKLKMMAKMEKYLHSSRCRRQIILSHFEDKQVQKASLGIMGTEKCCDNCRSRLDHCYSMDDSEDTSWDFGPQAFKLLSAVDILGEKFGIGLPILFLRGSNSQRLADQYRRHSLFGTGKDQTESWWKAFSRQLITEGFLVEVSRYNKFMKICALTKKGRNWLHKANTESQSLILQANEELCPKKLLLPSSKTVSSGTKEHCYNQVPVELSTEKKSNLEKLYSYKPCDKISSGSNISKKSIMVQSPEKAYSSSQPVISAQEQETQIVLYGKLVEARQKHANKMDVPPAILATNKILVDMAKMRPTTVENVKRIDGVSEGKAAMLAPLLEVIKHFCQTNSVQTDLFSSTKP

For the compound `Cc1ncnc(C(=O)N2CCN(c3c4n(c5nc(C6=CCOCC6)nn5c3=O)[C@@H](C(=O)Nc3ccc(C(F)(F)F)cc3Cl)C[C@H]4C)C[C@H]2C)c1O` [Example 18A, (7R,9R)—N-(2-chloro-4-(trifluoromethyl)phenyl)-2-(3,6-dihydro-2H-pyran-4-yl)-6-((R)-4-(5-hydroxy-6-methylpyrimidine-4-carbonyl)-3-methylpiperazin-1-yl)-7-methyl-5-oxo-5,7,8,9-tetrahydropyrrolo[1,2-c][1,2,4]triazolo[1,5-a]pyrimidine-9-carboxamide], the IC50 – broadly, the concentration that inhibits the measured activity by half – in experiment [1] was 50 nM. Besides, the “% T/C” value in experiment [2] (1 mg/kg p.o. qd, day 32 of the study (fourteenth day of treatment)) is recorded as 22%. Further, the maximal regression amounted to 71% in experiment [2] (3 mg/kg p.o. qd, day 49 of the study (thirty first day of treatment)); 83% in experiment [2] (5 mg/kg p.o. qd, day 49 (thirty first day of treatment)); 91% in experiment [2] (10 mg/kg p.o. qd, day 63 (forty fifth day of treatment)). Moreover, the anti-tumor effect result in experiment [2] is on record as “Dose dependent anti-tumor effect was observed”. In addition, in experiment [2], the “relapse while on treatment” value was “Relapse was observed for all treatment groups”.

`Cc1ncnc(C(=O)N2CCN(c3c4n(c5nc(C6=CCOCC6)nn5c3=O)[C@@H](C(=O)Nc3ccc(C(F)(F)F)cc3Cl)C[C@H]4C)[C@H]3CC[C@@H]32)c1O` [Example 21A, (7R,9R)—N-(2-chloro-4-(trifluoromethyl)phenyl)-2-(3,6-dihydro-2H-pyran-4-yl)-6-((1S,6S)-5-(5-hydroxy-6-methylpyrimidine-4-carbonyl)-2,5-diazabicyclo[4.2.0]octan-2-yl)-7-methyl-5-oxo-5,7,8,9-tetrahydropyrrolo[1,2-c][1,2,4]triazolo[1,5-a]pyrimidine-9-carboxamide] yielded an IC50 in experiment [1] of 30 nM. Moreover, the “% T/C” value was 50% in experiment [2] (0.1 mg/kg p.o. qd, day 25 throughout 29th day of the study (tenth to fourteenth day of treatment)) and 0% in experiment [2] (0.3 mg/kg p.o. qd, day 29 of the study (fourteenth day of treatment), initial stasis followed by regrowth). The maximal regression in experiment [2] (1 mg/kg p.o. qd, day 52 of the study (thirty seventh day of treatment)) worked out at 75%; in experiment [2] (3 mg/kg p.o. qd, day 85 (seventieth day of the treatment)), 99%. The anti-tumor effect result in experiment [2] was “Dose dependent anti-tumor effect was observed”. The “relapse while on treatment” value in experiment [2] was “no relapse was observed in three animals treated at 1 mg/kg and in entire group treated at 3 mg/kg”.
